# Laboratory results reported in US8324172B2, “G protein coupled receptor agonists and antagonists and methods of activating and inhibiting G protein coupled receptors using the same” (Tufts Medical Center, Inc., priority 2000, dated 2012).
# Where a chain is given by its changes, count along the chain named. “Also recorded” adds a separate entry of the source. Where a SMILES comes first, the peptide text is derived from it. Where no end group is shown, it is not given here. The star is where a group is joined. Palmitoyl = CCCCCCCCCCCCCCCC(=O)*
# Assays:
# P2Y12 ADP receptor = target: T1, P2Y12 ADP receptor (Homo sapiens, UniProt Q9H244); assay: Irreversible aggregation of SFLLRN-activated human platelets (ADP autocrine response); format: cell-based; settings: 3 μM SFLLRN
# T1 construct: endogenous in cells; host or cells: gel-purified human platelets
# T1 sequence (Q9H244 whole entry): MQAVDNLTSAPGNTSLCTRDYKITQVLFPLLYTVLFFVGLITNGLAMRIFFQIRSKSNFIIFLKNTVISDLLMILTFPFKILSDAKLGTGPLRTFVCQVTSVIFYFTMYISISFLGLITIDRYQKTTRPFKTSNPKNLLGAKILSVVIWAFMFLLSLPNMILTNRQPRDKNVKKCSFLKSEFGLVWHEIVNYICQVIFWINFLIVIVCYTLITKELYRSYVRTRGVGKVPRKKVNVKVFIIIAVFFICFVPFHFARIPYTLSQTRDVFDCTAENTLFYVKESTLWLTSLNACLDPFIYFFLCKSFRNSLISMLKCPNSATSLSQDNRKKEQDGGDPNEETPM
# From the text: Recently, the P2Y12 adenosine diphosphate (ADP) receptor was cloned by three independent groups (Hollopeter et al., Nature 409:202 (2001); Zhang et al., J. Biol. Chem. 276:8605 (2001); and Takasaki et al., Mol. Pharmacol. 60:432 (2001)) and shown to be the long-sought after target of the thienopyridine drugs clopidogrel and ticlopidine (Gachet et al., Biochem Pharmacol 40:2683 (1990); Mills et al., Arterioscler Thromb 12:430 (1992)). […] P2Y12 plays such a critical role in thrombus formation because it can modulate the strength of platelet-platelet adhesive interactions via multiple receptors such as PAR1. Inputs from P2Y12 stabilize the critical transition point of platelet-platelet aggregates during the progression from early reversible GPIIb-IIIa-fibrinogen binding to the late phase of irreversible binding to fibrinogen.
# Aggregometry was performed by light scattering.
# [1] = test system: untransfected Rat1 cells / COS7 cells without PAR1; assay: InsP formation in COS7 cells or Rat1 fibroblasts in the absence of the PAR1 receptor; format: cell-based; settings: for InsP stimulation in the absence of the PAR1 receptor: COS7 cells or Rat1 fibroblasts
# PAR1 [2] = target: T2, PAR1 (Homo sapiens, UniProt P25116); assay: InsP formation (PLC-β) in Rat1 fibroblasts expressing human PAR1; format: cell-based
# T2 construct: expressed in transfected cells
# T2 sequence (P25116 22-425): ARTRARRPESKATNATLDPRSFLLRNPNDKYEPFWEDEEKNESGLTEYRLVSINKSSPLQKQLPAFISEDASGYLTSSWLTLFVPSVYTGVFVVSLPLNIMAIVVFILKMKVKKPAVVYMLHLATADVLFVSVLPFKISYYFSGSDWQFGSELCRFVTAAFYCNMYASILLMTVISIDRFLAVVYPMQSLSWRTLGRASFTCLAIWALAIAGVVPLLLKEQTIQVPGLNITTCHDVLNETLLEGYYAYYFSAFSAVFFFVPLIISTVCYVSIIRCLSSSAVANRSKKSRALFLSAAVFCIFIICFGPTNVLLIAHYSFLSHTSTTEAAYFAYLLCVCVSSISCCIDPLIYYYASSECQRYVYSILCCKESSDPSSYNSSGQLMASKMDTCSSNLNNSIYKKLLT
# S309P PAR1 = target: T3, S309P PAR1 (Homo sapiens, UniProt P25116, S309P); assay: InsP formation in COS7 cells expressing S309P PAR1 mutant; format: cell-based; settings: relative to wild type PAR1
# T3 construct: expressed in transfected cells; host or cells: COS7, transient
# T3 sequence (P25116 22-425 S309P): T2 sequence (P25116 22-425) with S288P
# cholecystokinin B (CCKB) = target: T4, cholecystokinin B (CCKB) (Homo sapiens, UniProt P32239); assay: InsP formation in COS7 cells expressing CCKB; format: cell-based
# T4 construct: expressed in transfected cells; host or cells: COS7, transient
# T4 sequence (P32239 1-447): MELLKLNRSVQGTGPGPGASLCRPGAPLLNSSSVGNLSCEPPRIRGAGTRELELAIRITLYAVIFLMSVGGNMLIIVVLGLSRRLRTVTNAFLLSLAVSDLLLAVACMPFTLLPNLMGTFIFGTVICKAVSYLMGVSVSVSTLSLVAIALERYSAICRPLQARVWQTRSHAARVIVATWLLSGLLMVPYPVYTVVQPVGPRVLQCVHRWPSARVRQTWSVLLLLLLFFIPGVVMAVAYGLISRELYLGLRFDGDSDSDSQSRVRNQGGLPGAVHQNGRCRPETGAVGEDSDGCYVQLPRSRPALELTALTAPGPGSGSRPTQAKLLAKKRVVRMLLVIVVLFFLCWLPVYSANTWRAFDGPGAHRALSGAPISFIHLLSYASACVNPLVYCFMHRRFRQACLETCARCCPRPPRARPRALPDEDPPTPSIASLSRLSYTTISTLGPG
# cholecystokinin A (CCKA) = target: T5, cholecystokinin A (CCKA) (Homo sapiens, UniProt P32238); assay: InsP formation in COS7 cells expressing CCKA; format: cell-based
# T5 construct: expressed in transfected cells; host or cells: COS7, transient
# T5 sequence (P32238 1-428): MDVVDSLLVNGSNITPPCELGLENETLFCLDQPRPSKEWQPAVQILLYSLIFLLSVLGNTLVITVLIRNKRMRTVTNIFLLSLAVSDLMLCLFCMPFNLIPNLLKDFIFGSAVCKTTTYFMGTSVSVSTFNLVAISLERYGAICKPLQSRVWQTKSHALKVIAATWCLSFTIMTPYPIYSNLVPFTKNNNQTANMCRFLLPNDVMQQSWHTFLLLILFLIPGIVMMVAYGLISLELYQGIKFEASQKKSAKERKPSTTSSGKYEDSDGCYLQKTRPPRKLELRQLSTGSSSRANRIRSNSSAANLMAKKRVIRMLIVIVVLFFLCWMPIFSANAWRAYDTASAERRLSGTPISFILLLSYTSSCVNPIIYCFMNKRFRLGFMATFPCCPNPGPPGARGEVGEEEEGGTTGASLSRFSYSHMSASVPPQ
# PAR4 = target: T6, PAR4 (Homo sapiens, UniProt Q96RI0); assay: InsP formation in COS7 cells expressing PAR4; format: cell-based; set-up: expressed in transfected cells; host or cells: COS7, transient; settings: COS7 cells
# T6 sequence (Q96RI0 18-385): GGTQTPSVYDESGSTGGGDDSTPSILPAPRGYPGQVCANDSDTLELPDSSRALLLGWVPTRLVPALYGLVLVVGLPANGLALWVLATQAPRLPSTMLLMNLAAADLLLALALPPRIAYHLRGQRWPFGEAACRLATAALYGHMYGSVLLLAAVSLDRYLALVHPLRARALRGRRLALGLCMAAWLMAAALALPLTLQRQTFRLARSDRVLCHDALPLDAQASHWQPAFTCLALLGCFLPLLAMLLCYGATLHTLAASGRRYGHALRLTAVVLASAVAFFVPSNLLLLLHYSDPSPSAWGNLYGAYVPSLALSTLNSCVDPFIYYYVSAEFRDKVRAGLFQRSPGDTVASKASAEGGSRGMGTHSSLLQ
# PAR1 [3] = target: T2, PAR1; assay: Inhibition of PAR1-dependent platelet Ca2+ signal; format: cell-based; settings: SFLLRN (or thrombin) after peptide pre-treatment
# Protocol: Platelet Ca2+ measurements were performed as in Example 1.
# The integrated Ca^2+ response for the individual treatments are relative to the full Ca^2+ responses for each agonist (100%) recorded in the absence of P4pal-10 (top trace).
# substance P (Sub-P) = target: T7, substance P (Sub-P) (Homo sapiens, UniProt P25103); assay: InsP formation in COS7 cells expressing substance P receptor; format: cell-based
# T7 construct: expressed in transfected cells; host or cells: COS7, transient
# T7 sequence (P25103 whole entry): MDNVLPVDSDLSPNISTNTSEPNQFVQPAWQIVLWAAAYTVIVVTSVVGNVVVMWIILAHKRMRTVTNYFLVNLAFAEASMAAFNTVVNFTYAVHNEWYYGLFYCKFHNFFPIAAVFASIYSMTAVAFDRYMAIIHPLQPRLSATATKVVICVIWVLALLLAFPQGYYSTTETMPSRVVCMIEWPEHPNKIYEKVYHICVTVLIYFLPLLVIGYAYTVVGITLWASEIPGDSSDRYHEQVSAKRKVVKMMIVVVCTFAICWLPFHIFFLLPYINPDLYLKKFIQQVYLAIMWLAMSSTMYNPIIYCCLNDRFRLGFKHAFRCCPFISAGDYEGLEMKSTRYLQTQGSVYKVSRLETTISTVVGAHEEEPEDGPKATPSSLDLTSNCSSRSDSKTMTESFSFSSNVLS
# delta377 PAR1 = assay: InsP formation in COS7 cells expressing delta377 (C-tail deleted) PAR1 mutant; format: cell-based, human
# [4] = target: T8, somatostatin receptor (SSTR2) (Rattus norvegicus, UniProt P30680); assay: InsP formation in COS7 cells expressing SSTR2; format: cell-based; settings: COS7 cells
# T8 construct: expressed in transfected cells; host or cells: COS7, transient
# T8 sequence (P30680 whole entry): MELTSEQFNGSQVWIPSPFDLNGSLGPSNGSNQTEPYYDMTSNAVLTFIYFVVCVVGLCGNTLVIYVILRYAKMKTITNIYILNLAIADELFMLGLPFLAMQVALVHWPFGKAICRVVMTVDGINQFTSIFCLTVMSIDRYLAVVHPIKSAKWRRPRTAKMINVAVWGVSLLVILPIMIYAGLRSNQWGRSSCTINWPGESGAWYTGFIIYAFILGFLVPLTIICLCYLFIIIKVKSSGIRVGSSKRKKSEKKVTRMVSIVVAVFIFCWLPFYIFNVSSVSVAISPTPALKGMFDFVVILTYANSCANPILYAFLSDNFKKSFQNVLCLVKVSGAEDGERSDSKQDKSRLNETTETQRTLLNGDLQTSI
# platelets = assay: Platelet intracellular Ca2+, agonist activity of peptides
# PAR2 = target: T9, PAR2 (Homo sapiens, UniProt P55085); assay: InsP formation in COS7 cells expressing PAR2; format: cell-based; settings: 0.1-10 micromolar pepducin
# T9 construct: expressed in transfected cells; host or cells: COS7 (transient)
# T9 sequence (P55085 26-397): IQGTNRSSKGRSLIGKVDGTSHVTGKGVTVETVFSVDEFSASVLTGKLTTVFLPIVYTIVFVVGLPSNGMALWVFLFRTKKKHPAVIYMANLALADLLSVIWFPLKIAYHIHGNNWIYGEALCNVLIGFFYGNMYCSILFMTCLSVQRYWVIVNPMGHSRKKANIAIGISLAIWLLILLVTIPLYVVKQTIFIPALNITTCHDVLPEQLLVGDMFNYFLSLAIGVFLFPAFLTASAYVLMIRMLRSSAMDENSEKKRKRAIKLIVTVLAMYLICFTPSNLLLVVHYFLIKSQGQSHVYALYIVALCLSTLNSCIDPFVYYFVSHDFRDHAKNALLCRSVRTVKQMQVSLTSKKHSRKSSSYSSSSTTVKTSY
# [5] = test system: thrombin receptors on human platelets; assay: Inhibition of thrombin-induced human platelet aggregation; settings: 3 nM thrombin; LBS1-PE at 25 micromolar
# MC4R = target: T10, MC4R (Homo sapiens, UniProt P32245); assay: Adenylate cyclase activity in COS7 fibroblasts transfected with MC4R; format: cell-based
# T10 construct: expressed in transfected cells; host or cells: COS7, transient
# T10 sequence (P32245 whole entry): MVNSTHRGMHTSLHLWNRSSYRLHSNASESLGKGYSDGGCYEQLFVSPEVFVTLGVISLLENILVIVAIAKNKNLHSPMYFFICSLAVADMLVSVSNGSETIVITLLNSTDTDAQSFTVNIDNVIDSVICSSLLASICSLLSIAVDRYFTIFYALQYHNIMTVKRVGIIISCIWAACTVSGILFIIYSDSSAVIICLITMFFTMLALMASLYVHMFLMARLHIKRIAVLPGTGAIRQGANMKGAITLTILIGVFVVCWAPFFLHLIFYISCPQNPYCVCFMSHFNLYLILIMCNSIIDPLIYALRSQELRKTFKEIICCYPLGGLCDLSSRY
molecule,measurement,setting,value
"Y12pal-24: pepducin based on the i3-loop of P2Y12; peptide KELYRS YVRTRGVGKVPRKKVNVF (SEQ ID NO:34) (KELYRSYVRTRGVGKVPRKKVNVF; also: palmitoyl lipid, position not given here) [Pepducin Y12pal-24]",agonist activity in platelet aggregation,human platelets,no agonist activity
same,inhibition of irreversible platelet aggregation,"P2Y12 ADP receptor; 0, 1, 3, or 10 μM pepducin",effective inhibitor of irreversible platelet aggregation
same,efficacy of inhibition compared with apyrase,P2Y12 ADP receptor; 10 μM pepducin,equivalent in efficacy as addition of saturating amounts of apyrase
CCCCCCCCCCCCCCCC(=O)N[C@@H](CCCNC(=N)N)C(=O)N[C@@H](CS)C(=O)N[C@@H](CC(C)C)C(=O)N[C@@H](CO)C(=O)N[C@@H](CO)C(=O)N[C@@H](CO)C(=O)N[C@@H](C)C(=O)N[C@H](C(=O)N[C@@H](C)C(=O)N[C@@H](CC(N)=O)C(=O)N[C@@H](CCCNC(=N)N)C(=O)N[C@@H](CO)C(=O)N[C@@H](CCCCN)C(=O)N[C@@H](CCCCN)C(=O)N[C@@H](CO)C(=O)N[C@@H](CCCNC(=N)N)C(=O)N[C@@H](C)C(=O)N[C@@H](CC(C)C)C(=O)N[C@@H](Cc1ccccc1)C(N)=O)C(C)C [Pepducin P1pal-19] (Palmitoyl-RCLSSSAVANRSKKSRALF-NH2),InsP stimulation in the absence of the PAR1 receptor,[1],approximately 11%
same,stimulation of untransfected Rat1 cells (Rat1 alone),[1]; attributed to endogenous rat PAR1,minor stimulation
same,Agonist Efficacy,PAR1 [2],90 ± 2%
same,loss of efficacy on S309P mutant,S309P PAR1,4.3 fold
same,loss of potency on S309P mutant,S309P PAR1,13 fold
same,"stimulation of CCKB, % of its maximal activity",cholecystokinin B (CCKB); maximum defined by 300 nM CCK-8,about 30%
same,activation of CCKA (InsP),cholecystokinin A (CCKA),does not activate
same,activation of PAR4 (InsP),PAR4,does not activate
same,inhibition of PAR1-dependent Ca2+ response,PAR1 [3],completely inhibits the subsequent Ca^2+i response
same,agonist activity in platelet aggregation,human platelets,fully activates platelet aggregation
same,EC50,human platelets; read-out: EC50 of activation of platelet aggregation,8 ± 3 µM
same,activation of Sub-P receptor (InsP),substance P (Sub-P),does not activate
same,stimulation of PLC-beta with delta377 PAR1 mutant,delta377 PAR1,effectively no stimulation of PLC-beta
same,activation of SSTR2 (InsP),[4],does not activate
same,"agonist activity, platelet intracellular Ca2+",platelets,causes a rapid Ca^2+i transient
same,activation of PAR2 (InsP),PAR2,robustly activate PAR2; also recorded: can fully activate
CCCCCCCCCCCCCCCC(=O)N[C@@H](C)C(=O)N[C@H](C(=O)N[C@@H](C)C(=O)N[C@@H](CC(N)=O)C(=O)N[C@@H](CCCNC(=N)N)C(=O)N[C@@H](CO)C(=O)N[C@@H](CCCCN)C(=O)N[C@@H](CCCCN)C(=O)N[C@@H](CO)C(=O)N[C@@H](CCCNC(=N)N)C(=O)N[C@@H](C)C(=O)N[C@@H](CC(C)C)C(=O)N[C@@H](Cc1ccccc1)C(N)=O)C(C)C [Pepducin P1pal-13] (Palmitoyl-AVANRSKKSRALF-NH2),InsP stimulation in the absence of the PAR1 receptor,[1],approximately 11%
same,Agonist Efficacy,PAR1 [2],60 − 88%
same,activation of CCKB (InsP),cholecystokinin B (CCKB); COS7 cells,did not activate
same,activation of CCKA (InsP),cholecystokinin A (CCKA),did not activate
same,activation of PAR4 (InsP),PAR4,did not activate
same,activation of Sub-P receptor (InsP),substance P (Sub-P),did not activate
same,activation of SSTR2 (InsP),[4],did not activate
same,activation of PAR2 (InsP),PAR2,did not activate
PAFISEDASGYL-C (PAFISEDASGYLC) [LBS1],inhibition of aggregation,[5],did not inhibit
same,inhibition of PAR1-dependent Ca2+ response,PAR1 [3],relatively poor antagonist
same,inhibition of PAR1-dependent Ca2+ response,PAR1 [3]; listed as LBS-1,poor antagonist
CCCCCCCCCCCCCCCC(=O)N[C@H](C(=O)NCC(=O)N[C@@H](C)C(=O)N[C@H](C(=O)N[C@@H](CCCNC(=N)N)C(=O)N[C@@H](CCC(N)=O)C(=O)NCC(=O)N[C@@H](C)C(=O)N[C@@H](CC(N)=O)C(=O)N[C@@H](CCSC)C(=O)N[C@@H](CCCCN)C(=O)NCC(=O)N[C@@H](C)C(=O)N[C@H](C(N)=O)[C@@H](C)CC)[C@@H](C)CC)[C@@H](C)O [MC4pal-14] (Palmitoyl-TGAIRQGANMKGAI-NH2),IC50,"MC4R; read-out: IC50, inhibitory phase",~10 µM
same,stimulation of adenylate cyclase activity (efficacy),MC4R; relative to alpha-MSH,40%
